Measurements from patent US8592363B2, “ψεrack peptide composition and method for protection against tissue damage due to ischemia” (The Board of Trustees of the Leland Stanford Junior …, priority 2000, dated 2013).

How the values were obtained:
[1] = test system: ex vivo hearts; experiment: Functional recovery of ex vivo hearts after global ischemia (left ventricle pressure, dP/dt, perfusion pressure); design: species or system Mice or rats; conditions: 500 nM peptide prior to 30 minute global ischemia; 30 minute reperfusion
Protocol: In another study in support of the invention, the functional recovery of ex vivo hearts after an ischemic event was evaluated by monitoring, the isovolumic left ventricle pressure (LVP) at a constant pacing (3.3 Hz) and at a constant coronary flow (10 mL/min), as described in Example 1. Prior to the ischemic event, the hearts were treated with 500 nM ψεRACK (SEQ ID NO:2) or with scrambled ψεRACK peptide (SEQ ID NO:4). After the 30 minute global ischemia, the hearts were monitored during a 30 minute reperfusion period.
Mice or rats were anesthetized with i.p. avertin, and their hearts were rapidly removed and cannulated via the aorta for reperfusion as described in the art (Colbert et al, 1997). Care was taken to have the hearts perfused within 90 seconds of removal. The left ventricular pressure and real-time derivative (dP/dt) were monitored via a catheter placed in the ventricular apex. Hemodynamic parameters were archived every 20 seconds throughout the procedure. The hearts were perfused with oxygenated Krebs-Henseleit solution comprised of, in […], NaCl 120; KCl 5.8; NaHCO3 25; NaH2O4 1.2; MgSO4 1.2; CaCl2 1.0; and dextrose 10, pH 7.4 at 37 C.
After a 10-20 minute equilibration period, the hearts were treated with ψεRACK peptide (SEQ ID NO:2) or with scrambled ψεRACK peptide (SEQ ID NO:4) for 20 minutes. […]

[2] = test system: ex vivo rat hearts; experiment: Ex vivo administration of ψεRACK prior to ischemia: CPK release in perfusate of Langendorff-perfused hearts; conditions: 0.5 μM peptide for 20 minutes prior to 45 minutes global ischemia; 30 minute reperfusion; FIG. 1A
Protocol: Animals were anesthetized as described in Example 1 and their hearts were rapidly removed and cannulated for perfusion on a Langendorff apparatus. Hemodynamic parameters were monitored until stabilized, typically for 10-20 minutes. After equilibration, ψεRACK peptide (SEQ ID NO:2) or a scrambled ψεRACK peptide (SEQ ID NO:4) were delivered to the hearts via the coronary arteries using 0.5 μM of peptide for 20 minutes.
To induce global ischemia, flow to the hearts was interrupted for 45 minutes. The hearts were then reperfused for 30 minutes. During reperfusion, ischemic-induced cell damage was determined by measuring the activity of creatine phosphokinase (absorbance at 520 nm) in the perfusate. […]
Mice or rats were anesthetized with i.p. avertin, and their hearts were rapidly removed and cannulated via the aorta for reperfusion as described in the art (Colbert et al, 1997). […] The left ventricular pressure and real-time derivative (dP/dt) were monitored via a catheter placed in the ventricular apex. […]
To induce global ischemia, flow was interrupted for 45 minutes. […] During reperfusion, ischemia-induced cell damage was determined by measuring the activity of creatine phosphokinase (CPK) (absorbance at 520 nm) in the perfusate using a Sigma kit.

[3] = test system: pig heart; experiment: Left ventricurogram (ejection fraction) in pigs after LAD occlusion; format: in vivo
Protocol: In another study, left ventricurogram (LVG) was performed in pigs (n=5) at three time points: (1) before occlusion of left anterior descending artery by balloon catheter (before occlusion); (2) immediately after reperfusion with 5 μM/10 mL of ψεRACK (post ψεRACK); and (3) before sacrifice five days later (5 days post), using 6 Fr. of pig-tail catheter. LVG was recorded by two views, right anterior oblique and left anterior oblique. Ejection fraction (EF), the percent of blood ejected in a beat, during maximum contraction, of the total maximum present in the left ventricle, was analyzed by the software, Plus Plus (Sanders Data Systems), and the averages of two views were evaluated. […] Accordingly, delivery of a ψεRACK peptide in vivo after ischemia is effective to reduce cell and tissue damage, as evidenced by an ejection fraction at least 10% greater than that of untreated cells or tissues.

[4] = test system: pig heart; experiment: In vivo administration during LAD balloon occlusion in pigs: infarct area of area at risk; conditions: for infarct of area at risk: about 20 μg peptide during first 10 minutes of 30 minute occlusion, hearts analysed five days later, average, p<0.005
Protocol: In another study in support of the invention, the ability of ψεRACK peptide to protect tissue from damage due to an ischemic or hypoxic event was evaluated by administering the peptide in vivo. As detailed in Example 3, ψεRACK peptide (SEQ ID NO:2) or scrambled ψεRACK peptide (SEQ ID NO:4) was administered to adult pigs during the first 10 minutes of a 30 minutes ischemic insult. Five days later, the hearts were analyzed for tissue damage.
Young adult female pigs, 35-40 kg in weight, were anesthetized and a catheter was introduced through the carotid artery into the heart. Using conventional intervention cardiology techniques, a wire was placed through a catheter and into the left anterior descending artery (LAD): A balloon was run over this wire to a site of occlusion where it was then inflated to block blood flow for 30 minutes. During the first 10 minutes of the ischemic insult, either the control scrambled ψεRACK peptide (SEQ ID NO:4, n=5) or the biologically active RACK peptide (SEQ ID NO:2, n=5) was delivered by diffusion through the balloon directly downstream of the occlusion. Approximately 20 μg peptide (˜400 ng per kg body weight) was administered.
After 30 minutes of occlusion, the balloon was removed and pigs were left to recover from surgery. Five days later, the pigs were euthanized and hearts were harvested. After heart removal, the LAD was occluded. With the occlusion in place, Evans Blue dye, which stains all areas not at risk of infarct in blue while leaving all areas with no access to blood flow red, was infused. Hearts were then cut into slices and stained with a tetrazolium red dye which stains all live areas red and infarcted dead tissue in white. Each heart had multiple tissue slices with distinctive areas marking the area at risk for ischemia and the infarcted area. From this the percent infarct per area at risk for each slice and for the entire heart was determined.

[5] = test system: whole rat hearts; experiment: Ex vivo administration of ψεRACK after ischemia: CPK release in perfusate during reperfusion; conditions: 0.5 μM peptide for first 20 minutes of reperfusion after 45 minutes ischemia; 60 minute period; FIG. 3B
Protocol: In another study performed in support of the invention, ψεRACK was administered to hearts ex vivo after a prolonged ischemic period and was effective to provide protection from ischemic injury. As described in Example 2, whole rat hearts were perfused on a Langendorff apparatus. After a 30 minute equilibration period, global ischemia was induced by stopping fluid flow for 45 minutes. The hearts were then reperfused with or without ψεRACK peptide for 20 minutes followed by 40 minutes perfusion without peptide. During the 60 minutes following ischemia (20 minutes of peptide reperfusion plus 40 minutes perfusion), the CPK activity in the perfusate was analyzed.
Rat hearts were prepared as described in Example 1. After a 30 minute equilibration period, global ischemia was induced by interrupting fluid flow for 45 minutes. The hearts were then reperfused with 0.5 μM of ψεRACK peptide for 20 minutes, followed by 40 minutes of reperfusion without the peptide. As a control, some hearts were left untreated after ischemia. During the 60 minute period following ischemia, ischemia-induced cell damage was determined by monitoring the creatine phosphokinase (CPK) activity (absorbance at 520 nm) in the perfusate collected during reperfusion.

[6] = pigs, 5 days post ischemia and treatment

Sequence | coronary perfusion pressure [1] | elevated LVP end diastolic pressure [1] | creatine phosphokinase (CPK) release during reperfusion [2] | ejection fraction after occlusion compared to control animals treated with scrambled peptide ([3]; pigs n=5, 5 μM/10 mL ψεRACK, immediately after reperfusion, FIG. 5) | ejection fraction compared with that before ischemia [3, 6] | ejection fraction higher than the untreated animals [3, 6] | infarct of area at risk [4] | reduction of percent infarct versus scrambled peptide control ([4]; infarct area as percent of area at risk, in grams of cardiac tissue, FIG. 4C) | lower total CPK release versus untreated hearts [5]
HDAPIGYD (pseudo-epsilon RACK octapeptide) [ψεRACK, ψεRACK octapeptide, εPKC specific agonist peptide] | reduced | reduced | close to the control hearts maintained under normoxia conditions | higher ejection fraction | on par with that measured prior to ischemia | about 10% | 14.9±6% | more than 2 fold | ~2 fold
PDYHDAGI (scrambled pseudo-epsilon RACK octapeptide) [scrambled ψεRACK, scrambled ψεRACK octapeptide, negative control, reference compound] | – | – | significant release of CPK | – | – | – | 36.5±0.3% | – | –
